These results are taken from publication PMC9724289 (The European Respiratory Journal, 2022).

For data set [1], the system named is human pulmonary arterial smooth muscle cells (HPASMCs). Kind of data set: PDGF-BB-induced HPASMC proliferation assay. The format is cell-based.
The target of data set [2] is PDGFRβ (Rattus norvegicus, UniProt Q05030). Briefly: Imatinib in vivo pharmacodynamic profile. The conditions noted are these: imatinib dose selected for the in vivo study, oral gavage.
The subject of data set [3] is rat SU5416/Hypoxia (SU5416/H) model of PAH. Kind of data set: SU5416/H model. It is filed as in vivo. The settings on record: for circulating IL-10 / circulating plasma TNF-α / lung mRNA and protein levels of MCP-1: day 49, vs vehicle; for lung BMPR2: end of treatment, vs vehicle.
Data set [4] concerns rat monocrotaline (MCT) model. The conditions noted are these: cited from earlier work.
Data set [5] concerns MCP-1 secretion in CSF1R+ human macrophages. Briefly: MCP-1/CCL2 secretion in primary human macrophages. It is filed as cell-based. The conditions noted are these: 24-hour incubation.
The target in data set [6] is c-KIT (Rattus norvegicus, UniProt F7EWK5). Briefly: Lung c-KIT phosphorylation after PDGF-BB and SCF challenge in healthy rats. It is filed as in vivo. The settings on record: inhaled; co-administered intratracheal PDGF-BB and SCF.
Chain of c-KIT (Rattus norvegicus, UniProt F7EWK5) (F7EWK5 26-978): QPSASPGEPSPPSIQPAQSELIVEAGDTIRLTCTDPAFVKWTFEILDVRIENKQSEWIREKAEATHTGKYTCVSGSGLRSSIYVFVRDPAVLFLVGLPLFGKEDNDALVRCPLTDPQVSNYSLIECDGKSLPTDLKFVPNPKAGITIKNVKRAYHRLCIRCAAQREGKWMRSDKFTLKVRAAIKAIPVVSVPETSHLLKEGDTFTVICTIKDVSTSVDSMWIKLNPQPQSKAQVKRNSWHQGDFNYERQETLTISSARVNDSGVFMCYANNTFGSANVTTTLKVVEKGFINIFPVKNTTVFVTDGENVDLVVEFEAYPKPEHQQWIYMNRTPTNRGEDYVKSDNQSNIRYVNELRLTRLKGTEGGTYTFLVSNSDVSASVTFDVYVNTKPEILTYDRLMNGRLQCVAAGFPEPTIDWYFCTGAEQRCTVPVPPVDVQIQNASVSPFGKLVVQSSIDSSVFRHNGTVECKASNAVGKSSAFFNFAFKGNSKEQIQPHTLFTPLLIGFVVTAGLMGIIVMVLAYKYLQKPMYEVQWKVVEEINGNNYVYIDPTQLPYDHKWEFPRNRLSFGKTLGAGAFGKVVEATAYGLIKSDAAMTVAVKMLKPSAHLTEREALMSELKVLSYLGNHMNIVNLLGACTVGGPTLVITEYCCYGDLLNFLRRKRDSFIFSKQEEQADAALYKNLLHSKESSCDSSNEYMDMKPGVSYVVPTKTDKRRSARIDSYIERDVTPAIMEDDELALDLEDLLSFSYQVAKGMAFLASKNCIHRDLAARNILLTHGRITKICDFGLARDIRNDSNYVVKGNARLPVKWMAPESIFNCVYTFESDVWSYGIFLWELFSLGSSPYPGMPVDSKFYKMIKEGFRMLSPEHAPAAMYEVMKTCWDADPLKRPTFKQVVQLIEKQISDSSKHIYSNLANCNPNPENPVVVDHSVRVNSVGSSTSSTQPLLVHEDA
The test system of data set [7] is BMPR2. Kind of data set: Lung BMPR2 protein expression in healthy rats. The format is in vivo, rat. The settings on record: inhaled, dose-dependent, over time (8, 16, 24 h post-dosing).
Data set [8] relates to rat SU5416/Hypoxia (SU5416/H) model of PAH. Kind of data set: SU5416/H model. It is filed as in vivo. The settings on record: for RVSP end of study: 2 weeks.
The test system of data set [9] is rat monocrotaline pneumonectomy (MCTPN) model of PAH. Kind of data set: MCTPN model. The format is in vivo.
Data set [10] has as its target c-KIT (Homo sapiens, UniProt P10721). Kind of data set: cell-based.
Data set [11] can be described thus: Inhaled seralutinib pharmacokinetics in healthy rats. The settings on record: male, Sprague Dawley, rat, lung homogenate and plasma.
Data set [12] concerns the target CSF1R (Homo sapiens, UniProt P07333). Kind of data set: M-CSF-induced pCSF1R in primary human macrophages.
The mark [13] stands for this setting: 4.6 mg·kg−1 twice daily, vs vehicle.
Setting [14] is: 2.5 mg·kg−1 twice daily inhaled, 11 days.
The mark [15] stands for this setting: 2.5 mg·kg−1 twice daily, vs vehicle.

Structures are written as SMILES.

Chain of CSF1R (P07333 20-972): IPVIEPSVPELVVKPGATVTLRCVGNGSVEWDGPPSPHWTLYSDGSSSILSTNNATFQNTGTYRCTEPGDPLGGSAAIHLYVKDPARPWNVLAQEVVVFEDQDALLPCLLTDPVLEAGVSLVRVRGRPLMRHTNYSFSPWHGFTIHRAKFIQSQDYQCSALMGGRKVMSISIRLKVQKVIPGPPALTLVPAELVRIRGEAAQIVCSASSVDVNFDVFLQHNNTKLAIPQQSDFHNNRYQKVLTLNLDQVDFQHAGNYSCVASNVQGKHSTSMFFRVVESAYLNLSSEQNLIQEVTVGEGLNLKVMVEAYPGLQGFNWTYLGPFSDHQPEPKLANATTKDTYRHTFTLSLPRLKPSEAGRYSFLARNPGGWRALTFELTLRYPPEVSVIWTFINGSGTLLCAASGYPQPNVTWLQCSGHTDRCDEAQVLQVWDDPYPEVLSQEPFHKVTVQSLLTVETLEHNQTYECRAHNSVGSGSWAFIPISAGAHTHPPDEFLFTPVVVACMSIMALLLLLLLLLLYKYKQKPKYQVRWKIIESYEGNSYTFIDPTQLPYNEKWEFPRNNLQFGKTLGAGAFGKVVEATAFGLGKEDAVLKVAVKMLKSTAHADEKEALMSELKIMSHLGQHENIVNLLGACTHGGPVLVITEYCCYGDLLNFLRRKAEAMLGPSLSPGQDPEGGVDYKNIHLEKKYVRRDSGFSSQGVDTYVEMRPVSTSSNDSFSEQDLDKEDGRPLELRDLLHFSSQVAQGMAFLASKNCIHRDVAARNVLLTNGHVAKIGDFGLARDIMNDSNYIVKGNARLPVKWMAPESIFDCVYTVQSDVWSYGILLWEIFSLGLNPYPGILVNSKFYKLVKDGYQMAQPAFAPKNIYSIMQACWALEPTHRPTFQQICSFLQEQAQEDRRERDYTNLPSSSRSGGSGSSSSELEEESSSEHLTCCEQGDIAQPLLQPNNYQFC
Chain of c-KIT (Homo sapiens, UniProt P10721) (P10721 26-976): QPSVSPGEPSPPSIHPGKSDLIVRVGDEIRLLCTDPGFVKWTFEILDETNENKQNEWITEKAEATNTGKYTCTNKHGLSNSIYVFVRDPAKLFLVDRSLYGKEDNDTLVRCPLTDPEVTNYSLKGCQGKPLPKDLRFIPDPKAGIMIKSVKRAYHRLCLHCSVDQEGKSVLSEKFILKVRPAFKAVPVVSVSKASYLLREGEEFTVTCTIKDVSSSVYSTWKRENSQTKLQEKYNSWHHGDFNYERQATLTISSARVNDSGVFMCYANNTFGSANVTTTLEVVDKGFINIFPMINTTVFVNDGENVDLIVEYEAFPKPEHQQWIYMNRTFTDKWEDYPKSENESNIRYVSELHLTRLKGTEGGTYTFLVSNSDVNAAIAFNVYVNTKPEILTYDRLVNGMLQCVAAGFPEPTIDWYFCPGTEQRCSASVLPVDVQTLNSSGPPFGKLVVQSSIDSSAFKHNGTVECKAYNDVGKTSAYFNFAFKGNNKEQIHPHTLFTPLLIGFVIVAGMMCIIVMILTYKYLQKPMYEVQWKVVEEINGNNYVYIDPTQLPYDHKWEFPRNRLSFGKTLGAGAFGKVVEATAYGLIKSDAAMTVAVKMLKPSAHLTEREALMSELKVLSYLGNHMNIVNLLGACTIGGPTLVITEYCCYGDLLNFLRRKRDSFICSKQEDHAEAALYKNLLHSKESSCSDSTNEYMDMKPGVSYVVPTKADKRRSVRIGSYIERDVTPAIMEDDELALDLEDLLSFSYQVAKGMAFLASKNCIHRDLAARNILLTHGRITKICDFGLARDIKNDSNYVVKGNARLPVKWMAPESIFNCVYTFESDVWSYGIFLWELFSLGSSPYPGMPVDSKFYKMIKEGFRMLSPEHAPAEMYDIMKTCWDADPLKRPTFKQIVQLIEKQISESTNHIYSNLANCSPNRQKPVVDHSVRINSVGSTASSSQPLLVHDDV
Chain of PDGFRβ (Q05030 32-1097): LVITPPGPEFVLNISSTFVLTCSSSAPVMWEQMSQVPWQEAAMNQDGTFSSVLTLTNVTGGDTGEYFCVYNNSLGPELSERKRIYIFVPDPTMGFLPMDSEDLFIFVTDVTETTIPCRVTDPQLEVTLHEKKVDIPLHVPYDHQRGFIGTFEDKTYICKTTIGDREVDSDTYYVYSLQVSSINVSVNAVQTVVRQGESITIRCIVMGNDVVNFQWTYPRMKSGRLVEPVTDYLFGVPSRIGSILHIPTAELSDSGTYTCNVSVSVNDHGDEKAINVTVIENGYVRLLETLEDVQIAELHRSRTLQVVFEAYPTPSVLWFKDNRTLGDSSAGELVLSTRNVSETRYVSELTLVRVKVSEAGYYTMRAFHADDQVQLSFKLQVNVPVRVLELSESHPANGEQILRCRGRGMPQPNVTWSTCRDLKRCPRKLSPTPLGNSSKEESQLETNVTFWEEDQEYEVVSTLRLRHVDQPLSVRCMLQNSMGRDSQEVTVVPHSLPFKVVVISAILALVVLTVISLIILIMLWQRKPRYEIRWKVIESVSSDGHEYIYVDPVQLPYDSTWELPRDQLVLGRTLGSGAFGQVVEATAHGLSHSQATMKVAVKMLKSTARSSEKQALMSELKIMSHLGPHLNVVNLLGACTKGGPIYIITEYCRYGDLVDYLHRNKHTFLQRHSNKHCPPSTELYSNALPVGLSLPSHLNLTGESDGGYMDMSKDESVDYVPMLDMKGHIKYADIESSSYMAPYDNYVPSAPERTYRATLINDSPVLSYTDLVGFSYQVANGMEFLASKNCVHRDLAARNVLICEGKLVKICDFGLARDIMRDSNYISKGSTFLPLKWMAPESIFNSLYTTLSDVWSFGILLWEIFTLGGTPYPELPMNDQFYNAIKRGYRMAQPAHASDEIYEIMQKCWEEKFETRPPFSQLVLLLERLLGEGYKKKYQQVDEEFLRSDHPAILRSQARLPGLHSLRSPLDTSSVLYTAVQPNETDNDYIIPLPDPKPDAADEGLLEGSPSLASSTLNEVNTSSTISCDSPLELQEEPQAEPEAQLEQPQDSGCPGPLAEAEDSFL

As for `Cc1ccc(NC(=O)c2ccc(CN3CCN(C)CC3)cc2)cc1Nc1nccc(-c2cccnc2)n1` [Imatinib, reference compound], the “potency less than seralutinib” value in [1] (human PASMC and HLF proliferation assays) was 13–20 fold. Besides, the “PDGFRβ phosphorylation in healthy rats” value in data set [2] is “potent inhibition”. Moreover, in [3], the “circulating IL-10” value was “did not significantly alter”; the “circulating plasma TNF-α” value was “did not significantly alter”; the “lung mRNA and protein levels of MCP-1” value is on record as “did not modulate”; the “lung BMPR2” value is reported as “no significant effect”. Also, the “effect on NT-proBNP” value in [3] (imatinib 15.0 mg·kg−1 once daily oral, day 49) is “no significant effect”. Besides, the “pulmonary hypertension in rat MCT model” value in data set [4] is recorded as “reversed pulmonary hypertension”.
The IC50 is the concentration needed to halve the response being measured. Low values mean higher potency, high ones lower potency. One may read the Kp as the ratio of the level in a tissue or fluid to that in plasma or blood. As to `COc1ccc(-c2cncc(N[C@@H](C)c3cccc(NC(=O)c4cncc(C)c4)c3)n2)cc1OC` [Seralutinib, N-[3-[(1S)-1-[[6-(3,4-dimethoxyphenyl)pyrazin-2-yl]amino]ethyl]phenyl]-5-methylpyridine-3-carboxamide], the “greater potency at inhibiting proliferation compared to imatinib” value in [1] (human PASMCs and HLFs) was 13- to 20 fold. Moreover, the MCP-1 secretion result in data set [5] is given as “reduced MCP-1 secretion in a dose-dependent manner”. For the same compound, the “inhibition of c-KIT Y719 phosphorylation in lung” value in data set [6] was found to be 43%. The “increase in lung BMPR2 protein expression” value in data set [7] is 2-to-2.5 fold. Also, the “RVSP end of study” value in [8] (2.5 mg·kg−1 twice daily inhaled) was 49.6±3.1 mmHg. In [8] (2.5 mg·kg−1 twice daily inhaled, end of 2-week treatment, telemetry), the “reduction of PASP relative to vehicle” value is reported as 43%. Also, the “RVSP end of study” value in data set [8] (4.6 mg·kg−1 twice daily inhaled) was determined as 34.7±2.2 mmHg. In [8] (setting [13]), the “lung phospho-PDGFRβ IHC” value is listed as “reduced intensity”, the “number of grade 2 lesions (small pulmonary artery occlusion)” value is “significant decrease” and the “small pulmonary artery lumen-to-media area” value is given as “increased”. In data set [9] (setting [14]), the “reduction in RVSP compared to vehicle” value amounted to 50% and the “reduction of right ventricular hypertrophy compared to vehicle” value turned out to be 49%. The “PASP lower compared to vehicle” value in data set [9] (2.5 mg·kg−1 twice daily inhaled, day 9) is given as 34%. In addition, the “PASP lower compared to vehicle” value in data set [9] (2.5 mg·kg−1 twice daily inhaled, day 10) came to 37%. Moreover, the “PASP lower compared to vehicle” value in data set [9] (2.5 mg·kg−1 twice daily inhaled, day 11) was 41%. In addition, in data set [9] (2.5 mg·kg−1 twice daily, vs controls), the lumen-to-media area entry was “increased”. In data set [9] (setting [15]), the “grade 1 and 2 lesions” value is listed as “fewer”; the perivascular fibrosis result is recorded as “qualitative decrease”. Besides, in data set [9] (vs vehicle), the airway resistance result was “similar”, the minute ventilation result is given as “similar”, the respiratory rate entry was “decreased” and the tidal volume result is given as “significantly improved”. Also, in data set [3] (12.8 mg·kg−1 twice daily inhaled, day 49), the “decrease of NT-proBNP versus vehicle control” value worked out at 55%. The “small pulmonary artery muscularisation” value in data set [3] (compared to both the vehicle and imatinib-treated groups) is listed as “decrease”. In addition, in data set [3] (day 49), the “SMAD1/5 phosphorylation in lung” value is recorded as “increase” and the “circulating PDGF-BB” value is recorded as “trend towards decreased”. Moreover, in data set [3], the “circulating IL-10” value was “increased”; the “circulating plasma TNF-α” value was “decreased”; the “lung mRNA and protein levels of MCP-1” value is reported as “decreased”; the “lung BMPR2” value is “significantly increased”. In addition, the “effect on stroke volume index and cardiac index compared to imatinib” value in [3] (echocardiography, day 49) is “significantly greater effect”. In data set [10], this compound displayed an IC50 of 7.8 nM. Moreover, the Kp in data set [11] was determined as 30. Moreover, inhibition in data set [12] was half-maximal at 14.4 nM (IC50). The “more potent than imatinib, pCSF1R” value in data set [12] (M-CSF-induced phosphorylation of CSF1R in human primary differentiated macrophages) amounted to 34 fold.
